The record followed here is US7569578B2, “Heterocyclic anti-migraine agents” (Bristol-Meyers Squibb Company, priority 2003, dated 2009).

This assay has as its target T1, Human CGRP1 Receptor (Homo sapiens, UniProt O60894+Q16602).
T1 construct: endogenous in cells; host or cells: SK-N-MC cells (membrane homogenate)
Kind of assay: CGRP Binding Assay ([125I]-CGRP radioligand displacement, SK-N-MC membrane homogenate). As to conditions: [125I]-CGRP displacement, SK-N-MC homogenate, room temperature 2 h; read-out: Human CGRP1 Receptor IC50. On the technique in general: Loss of bound radioactivity is the signal in a displacement assay; it reports binding, not function.

T1 sequence (Q16602 23-461): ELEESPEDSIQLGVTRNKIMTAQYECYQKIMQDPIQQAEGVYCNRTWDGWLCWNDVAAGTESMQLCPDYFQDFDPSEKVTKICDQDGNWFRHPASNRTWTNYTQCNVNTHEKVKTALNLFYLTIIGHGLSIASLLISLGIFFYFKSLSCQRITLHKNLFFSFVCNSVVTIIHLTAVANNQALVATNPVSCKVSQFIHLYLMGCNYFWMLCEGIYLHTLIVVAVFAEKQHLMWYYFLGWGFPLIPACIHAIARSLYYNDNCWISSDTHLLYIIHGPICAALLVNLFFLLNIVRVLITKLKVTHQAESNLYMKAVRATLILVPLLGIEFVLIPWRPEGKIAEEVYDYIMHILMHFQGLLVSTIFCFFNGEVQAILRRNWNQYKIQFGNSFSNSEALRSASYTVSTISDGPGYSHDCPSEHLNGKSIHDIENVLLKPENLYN
T1 sequence (O60894 27-148): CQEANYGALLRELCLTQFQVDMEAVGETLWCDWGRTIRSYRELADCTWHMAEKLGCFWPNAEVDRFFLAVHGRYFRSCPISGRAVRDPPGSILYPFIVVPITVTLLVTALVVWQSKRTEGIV

A word on the IC50: it is the concentration at which inhibition is half-maximal. As for `Cc1cc(CC(NC(=O)N2CCC(N3Cc4ccccc4NC3=O)CC2)c2nccn2Cc2cccnc2)cc2cn[nH]c12` (racemic) [Example 91, (±)-N-(2-(7-Methyl-1H-indazol-5-yl)-1-(1-(pyridin-3-ylmethyl)-1H-imidazol-2-yl)ethyl)-4-(2-oxo-1,2-dihydroquinazolin-3(4H)-yl)piperidine-1-carboxamide], the concentration for half-maximal inhibition (IC50) is less than 10 nM.
Regarding `Cc1cc(CC(NC(=O)N2CCC(N3Cc4ccccc4NC3=O)CC2)c2nccn2Cc2ccccn2)cc2cn[nH]c12` (racemic) [Example 92, (±)-N-(2-(7-Methyl-1H-indazol-5-yl)-1-(1-(pyridin-2-ylmethyl)-1H-imidazol-2-yl)ethyl)-4-(2-oxo-1,2-dihydroquinazolin-3(4H)-yl)piperidine-1-carboxamide], the IC50 is less than 10 nM.
In the case of `Cc1cc(Cn2ccnc2C(Cc2cc(C)c3[nH]ncc3c2)NC(=O)N2CCC(N3Cc4ccccc4NC3=O)CC2)cc(Cl)n1` (racemic) [Example 93, (±)-N-(1-(1-((2-Chloro-6-methylpyridin-4-yl)methyl)-1H-imidazol-2-yl)-2-(7-methyl-1H-indazol-5-yl)ethyl)-4-(2-oxo-1,2-dihydroquinazolin-3(4H)-yl)piperidine-1-carboxamide], the half-inhibitory concentration (IC50) was less than 10 nM.
On to `Cc1cc(Cn2ccnc2C(Cc2cc(C)c3[nH]ncc3c2)NC(=O)N2CCC(N3Cc4ccccc4NC3=O)CC2)ccn1` (racemic) [Example 94, (±)-N-(2-(7-Methyl-1H-indazol-5-yl)-1-(1-((2-methylpyridin-4-yl)methyl)-1H-imidazol-2-yl)ethyl)-4-(2-oxo-1,2-dihydroquinazolin-3(4H)-yl)piperidine-1-carboxamide], for which the IC50 is less than 10 nM.
Consider `Cc1cc(CC(NC(=O)N2CCC(c3cc4ccccc4[nH]c3=O)CC2)c2cc3ccccc3cn2)cc2cn[nH]c12` (centres unmarked) [Example 36, N-(1-(Isoquinolin-3-yl)-2-(7-methyl-1H-indazol-5-yl)ethyl)-4-(2-oxo-1,2-dihydroquinolin-3-yl)piperidine-1-carboxamide], for which the half-inhibitory concentration (IC50) was less than 10 nM.
Consider `Cc1cc(CC(NC(=O)N2CCC(N3Cc4ccccc4NC3=O)CC2)c2cc3ccccc3cn2)cc2cn[nH]c12` (centres unmarked) [Example 50, N-(1-(isoquinolin-3-yl)-2-(7-methyl-1H-indazol-5-yl)ethyl)-4-(2-oxo-1,2-dihydroquinazolin-3(4H)-yl)piperidine-1-carboxamide], for which the concentration for half-maximal inhibition (IC50) was less than 10 nM.
On to `Cc1cc(CC(NC(=O)N2CCC(N3Cc4cccc(F)c4NC3=O)CC2)c2cc3ccccc3cn2)cc2cn[nH]c12` (centres unmarked) [Example 51, 4-(8-fluoro-2-oxo-1,2-dihydroquinazolin-3(4H)-yl)-N-(1-(isoquinolin-3-yl)-2-(7-methyl-1H-indazol-5-yl)ethyl)piperidine-1-carboxamide], for which the IC50 was less than 10 nM.
Next, `Cc1cc(CC(OC(=O)N2CCC(N3Cc4cccc(F)c4NC3=O)CC2)c2cc3ccccc3cn2)cc2cn[nH]c12` (centres unmarked) [Example 52, 1-(Isoquinolin-3-yl)-2-(7-methyl-1H-indazol-5-yl)ethyl 4-(8-fluoro-2-oxo-1,2-dihydroquinazolin-3(4H)-yl)piperidine-1-carboxylate]: less than 10 nM; `Cc1cc(CC(OC(=O)N2CCC(N3Cc4ccccc4NC3=O)CC2)c2cc3ccccc3cn2)cc2cn[nH]c12` (centres unmarked) [Example 53, 1-(Isoquinolin-3-yl)-2-(7-methyl-1H-indazol-5-yl)ethyl 4-(2-oxo-1,2-dihydroquinazolin-3(4H)-yl)piperidine-1-carboxylate]: less than 10 nM; `Cc1cc(CC(OC(=O)N2CCC(N3Cc4ccccc4NC3=O)CC2)c2ccccn2)cc2cn[nH]c12` (centres unmarked) [Example 54, 2-(7-methyl-1H-indazol-5-yl)-1-(pyridin-2-yl)ethyl 4-(2-oxo-1,2-dihydroquinazolin-3(4H)-yl)piperidine-1-carboxylate]: less than 10 nM.
Regarding `Cc1cc(CC(OC(=O)N2CCC(N3Cc4cccc(F)c4NC3=O)CC2)c2ccccn2)cc2cn[nH]c12` (centres unmarked) [Example 55, 2-(7-methyl-1H-indazol-5-yl)-1-(pyridin-2-yl)ethyl 4-(8-fluoro-2-oxo-1,2-dihydroquinazolin-3(4H)-yl)piperidine-1-carboxylate], the IC50 is less than 10 nM.
On to `Cc1cc(CC(OC(=O)N2CCC(N3Cc4ccccc4NC3=O)CC2)c2ccco2)cc2cn[nH]c12` (centres unmarked) [Example 56, 1-(Furan-2-yl)-2-(7-methyl-1H-indazol-5-yl)ethyl 4-(2-oxo-1,2-dihydroquinazolin-3(4H)-yl)piperidine-1-carboxylate], for which the IC50 fell in the range of 10 to 100 nM.
As for `Cc1cc(CC(OC(=O)N2CCC(N3Cc4ccccc4NC3=O)CC2)c2ccncc2)cc2cn[nH]c12` (centres unmarked) [Example 57, 2-(7-Methyl-1H-indazol-5-yl)-1-(pyridin-4-yl)ethyl 4-(2-oxo-1,2-dihydroquinazolin-3(4H)-yl)piperidine-1-carboxylate], the half-maximal inhibitory concentration (IC50) is 100 to 1000 nM.
As to `Cc1cc(CC(OC(=O)N2CCC(N3Cc4ccccc4NC3=O)CC2)c2cccnc2)cc2cn[nH]c12` (centres unmarked) [Example 58, 2-(7-Methyl-1H-indazol-5-yl)-1-(pyridin-3-yl)ethyl 4-(2-oxo-1,2-dihydroquinazolin-3(4H)-yl)piperidine-1-carboxylate], the concentration for half-maximal inhibition (IC50) lay within 100 to 1000 nM.
For `Cc1cc(CC(OC(=O)N2CCC(N3Cc4cccc(F)c4NC3=O)CC2)c2cccnc2)cc2cn[nH]c12` (centres unmarked) [Example 59, 2-(7-Methyl-1H-indazol-5-yl)-1-(pyridin-3-yl)ethyl 4-(8-fluoro-2-oxo-1,2-dihydroquinazolin-3(4H)-yl)piperidine-1-carboxylate], the IC50 lay in the range of 100 to 1000 nM.
Next, `Cc1cc(CC(OC(=O)N2CCC(N3Cc4cccc(F)c4NC3=O)CC2)c2ccco2)cc2cn[nH]c12` (centres unmarked) [Example 60, 1-(Furan-2-yl)-2-(7-methyl-1H-indazol-5-yl)ethyl 4-(8-fluoro-2-oxo-1,2-dihydroquinazolin-3(4H)-yl)piperidine-1-carboxylate]: 10 to 100 nM; `Cc1cc(CC(OC(=O)N2CCC(N3Cc4ccccc4NC3=O)CC2)c2ccc3ccccc3n2)cc2cn[nH]c12` (centres unmarked) [Example 61, 2-(7-Methyl-1H-indazol-5-yl)-1-(quinolin-2-yl)ethyl 4-(2-oxo-1,2-dihydroquinazolin-3(4H)-yl)piperidine-1-carboxylate]: less than 10 nM; `Cc1cc(C)nc(C(Cc2cc(C)c3[nH]ncc3c2)OC(=O)N2CCC(c3cc4ccccc4[nH]c3=O)CC2)n1` (centres unmarked) [Example 62, 1-(4,6-Dimethylpyrimidin-2-yl)-2-(7-methyl-1H-indazol-5-yl)ethyl 4-(2-oxo-1,2-dihydroquinolin-3-yl)piperidine-1-carboxylate]: 100 to 1000 nM.
Turning to `Cc1cc(C)nc(C(Cc2cc(C)c3[nH]ncc3c2)OC(=O)N2CCC(N3Cc4cccc(F)c4NC3=O)CC2)n1` (centres unmarked) [Example 63, 1-(4,6-Dimethylpyrimidin-2-yl)-2-(7-methyl-1H-indazol-5-yl)ethyl 4-(8-fluoro-2-oxo-1,2-dihydroquinazolin-3(4H)-yl)piperidine-1-carboxylate], the IC50 is 100 to 1000 nM.
Next, `Cc1cc(CC(OC(=O)N2CCC(N3Cc4ccccc4NC3=O)CC2)c2cc3ccccc3o2)cc2cn[nH]c12` (centres unmarked) [Example 64, 1-(Benzofuran-2-yl)-2-(7-methyl-1H-indazol-5-yl)ethyl 4-(2-oxo-1,2-dihydroquinazolin-3(4H)-yl)piperidine-1-carboxylate]: 10 to 100 nM.
